In patent US5935973A, “Heterocyclcarboxamide derivatives and their use as therapeutic agents” (Knoll Aktiengesellschaft, priority 1995, dated 1999):

Assays:
α1-adrenoceptors = test: inhibition of [7-methoxy-3H]prazosin binding to α1-adrenoceptors in rat whole cortical tissue; settings: rat whole cortex, 30 min; for Ki: [7-methoxy-3H]prazosin 0.1 nM, 30° C.; for % displacement of radio ligand, α1: at 10^-6 M, [7-methoxy-3H]prazosin, 1 µM
Experimental: Whole cortical tissue from the brains of male Charles River CD rats weighing between 150-250 g were homogenised in ice-cold 50 mM Tris-HCl, pH 7.6 (at 25° C.; 1:40 w/v) and centrifuged at 1000 g at 4° C. for 10 minutes. The supernatant was centrifuged at 30,000 g at 4° C. for 10 minutes. The pellet was rehomogenised in 50 mM Tris-HCl, pH 7.6 (1:40 w/v) and centrifuged at 30,000 g at 4° C. for 10 minutes. The final pellet was resuspended in 50 mM Tris-HCl, pH 7.6 (equivalent to 12.5 mg wet weight of tissue/ml) and used immediately in the binding assay. Aliquots (400 μl; equivalent to 5 mg wet weight of tissue/tube) of this suspension were added to tubes containing the ligand (50 μl; 0.1 nM) and distilled water (50 μl; total binding) or phentolamine (50 μl; 5 μM; non-specific binding) or test compound (50 μl; at a single concentration of 10^-6 M or at 10 concentrations ranging from 10^-11 -10^-3 M). The ligand was [7-methoxy-^3 H]prazosin and the mixture was incubated at 30° C. for 30 minutes before the incubation was terminated by rapid filtration.
(§1) The filters were washed with ice-cold Tris-HCl buffer and dried. The filters were punched out into vials, scintillation fluid added and radioactivity determined by liquid scintillation counting. The percentage displacement of specific binding of the tritiated ligand was calculated for the single concentration (10^-6 M) of test compound. Displacement curves were then produced for those compounds which displaced ≥50% of specific binding of the tritiated ligand at 10^-6 M using a range of concentrations of the compound. The concentration which gave 50% inhibition of specific binding (IC50) was obtained from the curve. The inhibition coefficient Ki was then calculated using the formula [formula] in which [ligand] is the concentration of the tritiated ligand used and KD is the equilibrium dissociation constant for the ligand.

α2D-adrenoceptors = target: T1, α2D-adrenoceptors (Rattus norvegicus, UniProt P22909); test: inhibition of tritiated idazoxan binding to α2D-adrenoceptors in rat frontal cortical tissue; settings: rat frontal cortex; for inhibition at 1 µM: at 10^-6 M, tritiated idazoxan, read-out: % displacement of radio ligand, α2D; for Ki: tritiated idazoxan 1 nM, 0° C., 75 min
T1 construct: Frontal cortical tissue from the brains of male Charles River CD rats; from tissue; host or cells: rat frontal cortex membranes
T1 sequence (P22909 1-465): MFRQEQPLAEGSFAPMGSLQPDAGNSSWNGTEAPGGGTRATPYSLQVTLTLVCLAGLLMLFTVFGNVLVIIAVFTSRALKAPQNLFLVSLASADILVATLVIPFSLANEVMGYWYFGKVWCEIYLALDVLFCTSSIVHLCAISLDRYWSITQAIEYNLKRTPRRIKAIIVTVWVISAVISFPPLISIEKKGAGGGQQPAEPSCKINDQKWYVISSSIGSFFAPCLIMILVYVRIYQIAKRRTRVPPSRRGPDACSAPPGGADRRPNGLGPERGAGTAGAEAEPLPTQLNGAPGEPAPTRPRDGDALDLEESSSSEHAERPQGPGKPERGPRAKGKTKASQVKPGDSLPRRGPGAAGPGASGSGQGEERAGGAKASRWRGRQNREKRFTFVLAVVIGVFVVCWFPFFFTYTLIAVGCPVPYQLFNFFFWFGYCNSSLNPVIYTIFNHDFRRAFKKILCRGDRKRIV
Experimental: Frontal cortical tissue from the brains of male Charles River CD rats weighing between 150-250 g were homogenised in ice-cold 0.25 M sucrose (1:30 w/v) and centrifuged at 1,000 g at 4° C. for 12 minutes. The supernatant was stored on ice and the pellet was rehomogenised in 0.25 M sucrose (1:15 w/v) and centrifuged at 850 g at 4° C. for 12 minutes. Combined supernatants were diluted with 5 mM Tris-HCl (pH 7.5) containing 5 mM ethylenediamine tetraacetic acid (EDTA) readjusted to pH 7.5 (at 25° C.) with 1 M sodium hydroxide to 1:80 w/v, and centrifuged at 30,000 g at 4° C. for 10 minutes. The resulting pellet was resuspended in 50 mM Tris-HCl (pH 7.5) containing 5.68 mM L-ascorbic acid and 0.5 mM EDTA readjusted to pH 7.5 (at 25° C.) with 1 M sodium hydroxide, and centrifuged at 30,000 g for 10 minutes. The final pellet was resuspended in 50 mM Tris-HCl (pH 7.5) containing 5.68 mM L-ascorbic acid and 5 mM EDTA (equivalent to 12.5 mg wet weight of tissue/ml) and used immediately in the binding assay. Aliquots (400 μl; equivalent to 5 mg wet weight of tissue/tube) of this suspension were added to tubes containing the ligand (50 μl; 1 nM) and distilled water (50 μl; total binding) or phentolamine (50 μl; 5 μM; non-specificbinding) or test compound (50 μl; at a single concentration of 10^-6 M or at 10 concentrations ranging from 10^-11 -10^-3 M). The ligand was tritiated idazoxan ((1,4-[6,7(n)-^3 H]benzodioxan-2-yl)-2-imidazoline hydrochloride) and the mixture was incubated at 0° C. for 75 minutes before the incubation was terminated by rapid filtration.
as §1, with “The percentage displacement of specific binding of the tritiated ligand was calculated for the single concentration (10^-6 M) of test compound.” left out

| Ki (α1-adrenoceptors) [nM] | inhibition at 1 µM (α2D-adrenoceptors) [%] | % displacement of radio ligand, α1 (α1-adrenoceptors) [%] | Ki (α2D-adrenoceptors) [nM] | SMILES |
| --- | --- | --- | --- | --- |
| 44 | 95 | – | – | O=C(NCC1CCN(C[C@H]2COc3ccc(Cl)cc3O2)CC1)c1cccc2cccnc12 [Example 23, (S)-N-{[1-(7-chloro-1,4-benzodioxan-2-ylmethyl)-4-piperidyl]methyl}quinoline-8-carboxamide] |
| 8 | 100 | – | – | O=C(NCC1CCN(CC2COc3ccccc3O2)CC1)c1cccc2cccnc12 (stereo not drawn) [Example 8, N-{[1-(1,4-benzodioxan-2-ylmethyl)-4-piperidyl]methyl}quinoline-8-carboxamide] |
| – | 97 | 89 | – | Nc1ncccc1C(=O)NCC1CCN(C[C@H]2COc3ccc(Cl)cc3O2)CC1 [Example 1, (S)-(-)-2-amino-N-{[1-(7-chloro-1,4-benzodioxan-2-ylmethyl)-4-piperidyl]methyl}pyridine-3-carboxamide] |
| 20 | 97 | – | – | Cc1ncccc1C(=O)NCC1CCN(C[C@H]2COc3cccc(Cl)c3O2)CC1 [Example 9, (S)-N-{[1-(8-chloro-1,4-benzodioxan-2-ylmethyl)-4-piperidyl]methyl}-2-methylpyridine-3-carboxamide] |
| 132 | 95 | – | – | O=C(NCC1CCN(C[C@H]2COc3ccc(Cl)cc3O2)CC1)c1ccccn1 [Example 12, (S)-N-{[1-(7-chloro-1,4-benzodioxan-2-ylmethyl)-4-piperidyl]methyl}pyridine-2-carboxamide] |
| 140 | – | – | 6.4 | Nc1ncccc1C(=O)NCC1CCN(CC2COc3ccc(F)cc3O2)CC1 (stereo not drawn) [Example 10, 2-amino-N-{[1-(7-fluoro-1,4-benzodioxan-2-ylmethyl)-4-piperidyl]methyl}pyridine-3-carboxamide] |
| 2 | 99 | – | – | Nc1ccsc1C(=O)NCC1CCN(CC2COc3ccccc3O2)CC1 (stereo not drawn) [Example 16, 3-amino-N-{[1-(1,4-benzodioxan-2-ylmethyl)-4-piperidyl]methyl}thiophene-2-carboxamide] |
| 70 | – | – | 27 | Nc1ccsc1C(=O)NCC1CCN(C[C@H]2COc3ccc(Cl)cc3O2)CC1 [Example 17, (S)-3-amino-N-{[1-(7-chloro-1,4-benzodioxan-2-ylmethyl)-4-piperidyl]methyl}thiophene-2-carboxamide] |
| – | 98 | 89 | – | Nc1ncccc1C(=O)NCC1CCN(CC2COc3ccccc3O2)CC1 (stereo not drawn) [Example 4, 2-amino-N-{[1-(1,4-benzodioxan-2-ylmethyl)-4-piperidyl]methyl}pyridine-3-carboxamide] |
| 172 | 99 | – | – | O=C(NCC1CCN(C[C@H]2COc3ccc(Cl)cc3O2)CC1)c1cccnc1 [Example 22, (S)-N-{[1-(7-chloro-1,4-benzodioxan-2-ylmethyl)-4-piperidyl]methyl}pyridine-3-carboxamide] |
| 298 | 89 | – | – | Cc1ncccc1C(=O)NCC1CCN(C[C@H]2COc3ccc(Cl)cc3O2)CC1 [Example 18, (S)-N-{[1-(7-chloro-1,4-benzodioxan-2-ylmethyl)-4-piperidyl]methyl}-2-methylpyridine-3-carboxamide] |
| 17 | 99 | – | – | Nc1ncccc1C(=O)NCC1CCN(C[C@H]2COc3ccccc3O2)CC1 [Example 15, (S)-2-amino-N-{[1-(1,4-benzodioxan-2-ylmethyl)-4-piperidyl]methyl}pyridine-3-carboxamide] |
| 4 | 98 | – | – | Nc1ncccc1C(=O)NCC1CCN(C[C@H]2COc3cccc(C(F)(F)F)c3O2)CC1 [Example 20, (S)-2-amino-N-{[1-(8-trifluoromethyl-1,4-benzodioxan-2-ylmethyl)-4-piperidyl]methyl}pyridine-3-carboxamide] |
| 104 | – | – | 3.6 | COc1ccc2c(c1)O[C@@H](CN1CCC(CNC(=O)c3cccnc3N)CC1)CO2 [Example 7, (S)-2-amino-N{[1-(7-methoxy-1,4-benzodioxan-2-ylmethyl)-4-piperidyl]methyl}-pyridine-3-carboxamide] |
| – | 98 | 100 | – | Nc1ncccc1C(=O)NCC1CCN(C[C@H]2COc3cccc(Cl)c3O2)CC1 [Example 2, (S)-2-amino-N-{[1-(8-chloro-1,4-benzodioxan-2-ylmethyl)-4-piperidyl]methyl}-pyridine-3-carboxamide] |
| 18 | 98 | – | – | COc1cccc2c1OC(CN1CCC(CNC(=O)c3cccnc3N)CC1)CO2 (stereo not drawn) [Example 11, 2-amino-N-{[1-(8-methoxy-1,4-benzodioxan-2-ylmethyl)-4-piperidyl]methyl}pyridine-3-carboxamide] |
| 75 | 97 | – | – | Cc1ccc(C(=O)NCC2CCN(C[C@H]3COc4ccc(Cl)cc4O3)CC2)c(N)n1 [Example 14, (S)-2-amino-N-{[1-(7-chloro-1,4-benzodioxan-2-ylmethyl)-4-piperidyl]methyl}-6-methylpyridine-3-carboxamide] |
| 21 | – | – | 4.4 | O=C(NCC1CCN(CC2COc3ccccc3O2)CC1)c1ccccn1 (stereo not drawn) [Example 6, N-{[1-(1,4-benzodioxan-2-ylmethyl)-4-piperidyl]methyl}pyridine-2-carboxamide] |
| 5.3 | 99 | – | – | Nc1ncccc1C(=O)NCC1CCN(C[C@H]2COc3cccc(F)c3O2)CC1 [Example 3, (S)-(-)-2-amino-N-{[1-(8-fluoro-1,4-benzodioxan-2-ylmethyl)-4-piperidyl]methyl}pyridine-3-carboxamide] |
| 65 | 96 | – | – | Cc1ccc2c(c1)O[C@@H](CN1CCC(CNC(=O)c3cccnc3N)CC1)CO2 [Example 5, (S)-2-amino-N-{[1-(7-methyl-1,4-benzodioxan-2-ylmethyl)-4-piperidyl]methyl}pyridine-3-carboxamide] |
| 10 | 99 | – | – | Cc1cccc2c1O[C@@H](CN1CCC(CNC(=O)c3cccnc3N)CC1)CO2 [Example 13, (S)-2-amino-N-{[1-(8-methyl-1,4-benzodioxan-2-ylmethyl)-4-piperidyl]methyl}pyridine-3-carboxamide] |
